{"source": "patent US20230141600A1", "about": "“IMIDAZOPYRAZINE DERIVATIVES” (priority 2020, published 2023)", "note": "Structures can show the parent of a compound that is named as a salt."}
{"tested_on": "Acinetobacter baumannii ATCC 17978", "experiment": "Minimal inhibitory concentration (MIC) determination, broth microdilution (CLSI M07-A10)", "format": "cell-based", "conditions": "ATCC17978, lowest concentration for complete growth inhibition, 18-24 hours at 35±2° C., read-out: ATCC 17978 MIC", "procedure": "(§1) Minimal Inhibitory Concentration (MIC) and MIC90 Determination:\n(§2) The MIC of antibacterial compounds against multiple species and strains was determined using the broth microdilution method according to M07-A10 Clinical and Laboratory Standards Institute (CLSI) guidelines (CLSI (2015) Methods for dilution antimicrobial susceptibility tests for bacteria that grow aerobically; Approved Standard, Tenth Edition. CLSI Document M7-A10 (ISBN 1-56238-987-4). Wayne, Pa.: Clinical and Laboratory Standards Institute, 19087, USA), using the appropriate broth medium. In short, the compound plates were prepared by dispensing 100 μl of each stock solution in the first well of a 96 well microtiter plate (MTP) at a concentration 100-fold higher than the final concentration desired in broth. Eleven serial 2-fold dilutions of the highest concentration were made in DMSO for new compounds and in water (or appropriate solution) for reference compounds (CLSI (2017) Performance Standards for Antimicrobial Susceptibility Testing; […] Informational Supplement. CLSI Document M100-S27, CLSI, Wayne, Pa. 19087, USA). 1 μL of each well was transferred in a new MTP, which served as the test plate by subsequent inoculation. This bacterial suspension was prepared from strains that were first sub-cultured on agar plates and incubated for 18-24 hours as appropriate. Following incubation, the inoculum was prepared from isolated colonies and adjusted to 0.5 McFarland turbidity standard (1 to 2×10^8 Colony Forming Units (CFU)/mL) in 0.9% saline. The bacterial suspension was then diluted 1:200 in appropriate sterile medium and within 15 minutes 100 μL/well were dispensed. Negative controls (lack of bacterial cells) and growth control wells (lack of compound) were included in all plates. MTPs were incubated for 18-24 hours at 35±2° C. in ambient air. The MIC value of each compound, expressed as μg/mL, was determined as the lowest concentration required for complete growth inhibition (no visible growth). MIC90 and MIC50 values were defined as the lowest concentration of the antibacterial compound at which 90% and 50% of the strains were inhibited.\n(§3) Table 3 provides the MIC's of particular compounds of the present invention obtained against the strain Acinetobacter baumannii ATCC 17978, expressed as μg/mL.", "units": {"MIC": "µg/mL"}}
{"smiles": "CCc1cc(Nc2nccn3c(-c4ccc(OC(F)F)c(F)c4F)cnc23)ccc1C(=O)N1CCC(C(=O)N2C[C@@H]3C[C@H]2C[N+]3(C)CC2CNC2)CC1.O=C([O-])C(F)(F)F.O=CO", "note": "(mixture of isomers) [Example 100, [4-[[3-[4-(Difluoromethoxy)-2,3-difluoro-phenyl]imidazo[1,2-a]pyrazin-8-yl]amino]-2-ethyl-phenyl]-[4-[rac-(1S,4S)-5-(azetidin-3-ylmethyl)-5-methyl-2-aza-5-azoniabicyclo[2.2.1]heptane-2-carbonyl]-1-piperidyl]methanone; formic acid; 2,2,2-trifluoroacetate (Mixed Salt)]", "MIC": 1.84}
{"smiles": "CCc1cc(Nc2nccn3c(-c4ccc(Oc5cnn(C)n5)c(F)c4F)cnc23)ccc1C(=O)NCC1CC[N+](C)(CC2CCNC2)CC1.O=C[O-]", "note": "(stereo not shown) [Example 6, 4-[[3-[2,3-difluoro-4-(2-methyltriazol-4-yl)oxy-phenyl]imidazo[1,2-a]pyrazin-8-yl]amino]-2-ethyl-N-[[1-methyl-1-(pyrrolidin-3-ylmethyl)piperidin-1-ium-4-yl]methyl]benzamide Formate]", "MIC": 8.57}
{"smiles": "CCc1cc(Nc2nccn3c(-c4ccc(OC(F)F)c(F)c4F)cnc23)ccc1C(=O)N1CCC(C(=O)NCC2CC[N+](C)(CC3CNC3)C2)CC1.O=C([O-])C(F)(F)F.O=CO", "note": "(stereo not shown) [Example 98, N-[[1-(Azetidin-3-ylmethyl)-1-methyl-pyrrolidin-1-ium-3-yl]methyl]-1-[4-[[3-[4-(difluoromethoxy)-2,3-difluoro-phenyl]imidazo[1,2-a]pyrazin-8-yl]amino]-2-ethyl-benzoyl]piperidine-4-carboxamide formate/2,2,2-trifluoroacetate (Mixed Salt)]", "MIC": 0.92}
{"smiles": "CCc1cc(Nc2nccn3c(-c4ccc(OC(F)F)c(F)c4F)cnc23)ccc1C(=O)N1CCC(C(=O)N2CC3(C2)C[N+](C)(CC2CNC2)C3)CC1.O=C([O-])C(F)(F)F.O=CO", "note": "[Example 99, [4-[2-(azetidin-3-ylmethyl)-2-methyl-6-aza-2-azoniaspiro[3.3]-6-carbonyl]-1-piperidyl]-[4-[[3-[4-(difluoromethoxy)-2,3-difluoro-phenyl]imidazo[1,2-a]pyrazin-8-yl]amino]-2-ethyl-phenyl]methanone formic acid 2,2,2-trifluoroacetate (Mixed Salt)]", "MIC": 0.92}
{"smiles": "CCc1cc(Nc2nccn3c(-c4ccc(OC(F)F)c(F)c4F)cnc23)ccc1C(=O)N[C@@H](C)CNC(=O)C1CC[N+](C)(CC2CNC2)CC1.O=C[O-]", "note": "(stereo partly drawn) [Example 114, 1-(Azetidin-3-ylmethyl)-N-[(2S)-2-[[4-[[3-[4-(difluoromethoxy)-2,3-difluoro-phenyl]imidazo[1,2-a]pyrazin-8-yl]amino]-2-ethyl-benzoyl]amino]propyl]-1-methyl-piperidin-1-ium-4-carboxamide Formate]", "MIC": 17.8}
{"smiles": "CCc1cc(Nc2nccn3c(-c4ccc(OC)c(F)c4F)cnc23)ccc1C(=O)NCC[N+]1(C)CCC(C(N)=O)C1.O=C([O-])C(F)(F)F", "note": "(stereo not shown) [Example 144, 1-[2-[[4-[[3-(2,3-Difluoro-4-methoxy-phenyl)imidazo[1,2-a]pyrazin-8-yl]amino]-2-ethyl-benzoyl]amino]ethyl]-1-methyl-pyrrolidin-1-ium-3-carboxamide 2,2,2-trifluoroacetate]", "MIC": 3.62}
{"tested_on": "Acinetobacter baumannii ATCC 17978", "experiment": "Minimal inhibitory concentration (MIC) determination, broth microdilution (CLSI M07-A10)", "format": "cell-based", "conditions": "ATCC17978, read-out: ATCC 17978 MIC", "procedure": "as §1, §2, §3", "units": {"MIC": "µg/mL"}}
{"smiles": "CCc1cc(Nc2nccn3c(-c4ccc(OC(F)F)c(F)c4F)cnc23)ccc1C(=O)N1CCC(C(=O)N2CC3CC(C2)[N+]3(C)CC2CNC2)CC1.O=C(O)C(F)(F)F.O=C([O-])C(F)(F)F.O=CO", "note": "(stereo not shown) [Example 101, [4-[6-(Azetidin-3-ylmethyl)-6-methyl-3-aza-6-azoniabicyclo[3.1.1]heptane-3-carbonyl]-1-piperidyl]-[4-[[3-[4-(difluoromethoxy)-2,3-difluoro-phenyl]imidazo[1,2-a]pyrazin-8-yl]amino]-2-ethyl-phenyl]methanone formate 2,2,2-trifluoroacetate (Mixed Salt)]", "MIC": 1.84}
{"tested_on": "Acinetobacter baumannii ATCC17978", "experiment": "90% growth inhibitory concentration (IC90) determination, antimicrobial susceptibility testing", "format": "cell-based", "conditions": "ATCC17978, 90% growth inhibition, Iso-Sensitest broth, OD 600 nm over 16 h, 35±2° C., read-out: ATCC 17978 IC90", "procedure": "Antimicrobial Susceptibility Testing:\n90% Growth Inhibitory Concentration (IC90) Determination\nThe in vitro antimicrobial activity of the compounds was determined according to the following procedure:\nThe assay used a 10-points Iso-Sensitest broth medium to measure quantitatively the in vitro activity of the compounds against Acinetobacter baumannii ATCC17961 and ATCC17978.\nStock compounds in DMSO were serially twofold diluted (e.g. range from 50 to 0.097 μM final concentration) in 384 wells microtiter plates and inoculated with 49 μl the bacterial suspension in Iso-Sensitest medium to have a final cell concentration of ˜5×10^(5) CFU/ml in a final volume/well of 50 ul/well. Microtiter plates were incubated at 35±2° C.\nBacterial cell growth was determined with the measurement of optical density at λ=600 nm each minutes over a time course of 16 h. Growth inhibition was calculated during the logarithmic growth of the bacterial cells with determination of the concentration inhibiting 50% (IC50) and 90% (IC90) of the growth.\nTable 1 provides the 90% growth inhibitory concentrations (IC90) in micromoles per liter of the compounds of present invention obtained against the strain Acinetobacter baumannii ATCC17978.", "units": {"IC90": "nM"}}
{"smiles": "C[N+]1(CCOCCNC(=O)c2ccc(Nc3nccn4c(-c5ccc(OCC#N)c(F)c5F)cnc34)cc2Cl)CCCC1", "note": "[Example 46, 2-Chloro-4-[[3-[4-(cyanomethoxy)-2,3-difluoro-phenyl]imidazo[1,2-a]pyrazin-8-yl]amino]-N-[2-[2-(1-methylpyrrolidin-1-ium-1-yl)ethoxy]ethyl]benzamide Formate]", "IC90": 161}
{"smiles": "COc1ccc(-c2cnc3c(Nc4ccc(C(=O)NCCC[N+](C)(C)C)c(Cl)c4)nccn23)c(F)c1F", "note": "[Example 47, 3-[[2-Chloro-4-[[3-(2,3-difluoro-4-methoxy-phenyl)imidazo[1,2-a]pyrazin-8-yl]amino]benzoyl]amino]propyl-trimethyl-ammonium Formate]", "IC90": 383}
{"smiles": "CC[N+](CC)(CC)CCCNC(=O)c1ccc(Nc2nccn3c(-c4ccc(OC)c(F)c4F)cnc23)cc1Cl", "note": "[Example 48, 3-[[2-Chloro-4-[[3-(2,3-difluoro-4-methoxy-phenyl)imidazo[1,2-a]pyrazin-8-yl]amino]benzoyl]amino]propyl-triethyl-ammonium Formate]", "IC90": 566}
{"smiles": "CCCC[N+](CCCC)(CCCC)CCCNC(=O)c1ccc(Nc2nccn3c(-c4ccc(OC)c(F)c4F)cnc23)cc1Cl", "note": "[Example 49, Tributyl-[3-[[2-chloro-4-[[3-(2,3-difluoro-4-methoxy-phenyl)imidazo[1,2-a]pyrazin-8-yl]amino]benzoyl]amino]propyl]ammonium Formate]", "IC90": 968}
{"smiles": "CCc1cc(Nc2nccn3c(-c4ccc(OC)c(F)c4F)cnc23)ccc1C(=O)NCCOCC[N+](C)(C)CC(=O)O", "note": "[Example 50, Carboxymethyl-[2-[2-[[4-[[3-(2,3-difluoro-4-methoxy-phenyl)imidazo[1,2-a]pyrazin-8-yl]amino]-2-ethyl-benzoyl]amino]ethoxy]ethyl]-dimethyl-ammonium Formate]", "IC90": 394}
{"smiles": "CCc1cc(Nc2nccn3c(-c4ccc(OC)c(F)c4F)cnc23)ccc1C(=O)NCCOCC[N+](C)(C)CCO", "note": "[Example 51, 2-[2-[[4-[[3-(2,3-Difluoro-4-methoxy-phenyl)imidazo[1,2-a]pyrazin-8-yl]amino]-2-ethyl-benzoyl]amino]ethoxy]ethyl-(2-hydroxyethyl)-dimethyl-ammonium formate]", "IC90": 62.8}
{"smiles": "CCc1cc(Nc2nccn3c(-c4ccc(OC)c(F)c4F)cnc23)ccc1C(=O)NCCOCC[N+](C)(C)CC(N)=O", "note": "[Example 52, (2-Amino-2-oxo-ethyl)-[2-[2-[[4-[[3-(2,3-difluoro-4-methoxy-phenyl)imidazo[1,2-a]pyrazin-8-yl]amino]-2-ethyl-benzoyl]amino]ethoxy]ethyl]-dimethyl-ammonium Formate]", "IC90": 38.8}
{"smiles": "CCc1cc(Nc2nccn3c(-c4ccc(OC)c(F)c4F)cnc23)ccc1C(=O)NCCOCC[N+](C)(C)CCCC(=O)O", "note": "[Example 53, 3-Carboxypropyl-[2-[2-[[4-[[3-(2,3-difluoro-4-methoxy-phenyl)imidazo[1,2-a]pyrazin-8-yl]amino]-2-ethyl-benzoyl]amino]ethoxy]ethyl]-dimethyl-ammonium Formate]", "IC90": 405}
{"smiles": "C[N+](C)(C)CC(=O)N1CCN(C(=O)c2ccc(Nc3nccn4c(-c5ccc(OCC#N)c(F)c5F)cnc34)cc2Cl)CC1", "note": "[Example 54, 2-(4-(2-Chloro-4-((3-(4-(cyanomethoxy)-2,3-difluorophenyl)imidazo[1,2-a]pyrazin-8-yl)amino)benzoyl)piperazin-1-yl)-N,N,N-trimethyl-2-oxoethan-1-aminium Formate]", "IC90": 45.2}
